Tests used:
Details in all cases: 1000 ppm water, after 21 days
[1] = tested on: Yellow foxtail; assay: Greenhouse weed control study, yellow foxtail
Procedure: (§1) A greenhouse study was conducted to evaluate efficacy benefits of several candidates.
(§2) Procedure: Product application was made using a DeVries spray booth calibrated to 10 gpa, 40 psi with flat-fan AIXR11002 nozzle. Test plants were placed in a certain zone (Zone 3) of research greenhouse on a wire-mesh raised bench and arranged in a randomized complete block design. […] Environmental conditions averaged high temperature 87° F. to low temperature of 75° F. during trial dates. Average humidity levels ranged from 40% to 90%. Test plants received natural lighting for duration of trial. Test plants were soil watered every twenty-four (24) hours as needed.
(§3) Weeds were evaluated for percent control at 3, 7, 14, and 21-days following application.
(§4) Rating scale used; 0 indicating no control/injury up to 100 indicating complete control of weed species as compared to the untreated check.

[2] = tested on: Ivyleaf morning glory; assay: Greenhouse weed control study, ivyleaf morning glory
Procedure: as §1, §2, §3, §4

[3] = tested on: Weeds; assay: Greenhouse weed control study, average over the four weeds
Procedure: as §1, §2, §3, §4

[4] = tested on: Common barnyardgrass; assay: Greenhouse weed control study, common barnyardgrass
Procedure: as §1, §2, §3, §4

[5] = tested on: Velvet leaf; assay: Greenhouse weed control study, velvetleaf
Procedure: as §1, §2, §3, §4

[6] = (55% soln) 0.18%, use rate 0.18 % w/w
[7] = (55% soln) 0.45%, use rate 0.45 % w/w
[8] = (80% liquid) 1%, use rate 1 % w/w

N.N.O=S(=O)(O)O [Ammonium Sulfate]
Yellow foxtail percent control ([1]; 1%, use rate 2.5 % w/w): 40%
Yellow foxtail percent control ([1]; 2%, use rate 5 % w/w): 40%
Ivyleaf morning glory percent control ([2]; 1%, use rate 2.5 % w/w): 20%
Ivyleaf morning glory percent control ([2]; 2%, use rate 5 % w/w): 18.3%
Average percent control ([3]; 1%, use rate 2.5 % w/w): 39.575%
Average percent control ([3]; 2%, use rate 5 % w/w): 41.65%
Common barnyardgrass percent control ([4]; 1%, use rate 2.5 % w/w): 80%
Common barnyardgrass percent control ([4]; 2%, use rate 5 % w/w): 90%
Velvet leaf percent control ([5]; 1%, use rate 2.5 % w/w): 18.3%
Velvet leaf percent control ([5]; 2%, use rate 5 % w/w): 18.3%

C[N+](C)(C)CCO.O=C([O-])CC(O)(CC(=O)O)C(=O)O [Choline Dihydrogen Citrate]
Yellow foxtail percent control ([1]; 0.4%, use rate 0.4 % w/w): 40%
Ivyleaf morning glory percent control ([2]; 0.4%, use rate 0.4 % w/w): 26.7%
Average percent control ([3]; 0.4%, use rate 0.4 % w/w): 42.5%
Common barnyardgrass percent control ([4]; 0.4%, use rate 0.4 % w/w): 83.3%
Velvet leaf percent control ([5]; 0.4%, use rate 0.4 % w/w): 20%

O=C(O)CC(O)(CC(=O)O)C(=O)O [Citric acid]
Yellow foxtail percent control [1, 6]: 36.7%
Yellow foxtail percent control [1, 7]: 50%
Ivyleaf morning glory percent control [2, 6]: 16.7%
Ivyleaf morning glory percent control [2, 7]: 20%
Average percent control [3, 6]: 37.925%
Average percent control [3, 7]: 36.25%
Common barnyardgrass percent control [4, 6]: 83.3%
Common barnyardgrass percent control [4, 7]: 60%
Velvet leaf percent control [5, 6]: 15%
Velvet leaf percent control [5, 7]: 15%

Choline bicarbonate
Yellow foxtail percent control [1, 8]: 83.3%
Ivyleaf morning glory percent control [2, 8]: 10%
Average percent control [3, 8]: 34.575%
Common barnyardgrass percent control [4, 8]: 30%
Velvet leaf percent control [5, 8]: 15%

Reference: US12171224B2, “Choline salt and ammonium-free adjuvants for water conditioning and agricultural formulations” (SPECIALTY OPERATIONS FRANCE, priority 2015, dated 2024)
